Reference: PMC10994248 (The Oncologist, 2024)

Experiment: Phase I safety and tolerability (TEAEs, DLTs, MTD, DRDE) in patients with advanced solid tumors
Type: in vivo, human
Conditions: for DLT: Hypertension / DLT: Palmar-plantar erythrodysesthesia syndrome / DLT: Skin and subcutaneous tissue disorders / DLT: Vascular disorders / Subjects who had a dose-limiting toxicity: dose-determining set
Description: This 2-part, open-label, phase I study was conducted at the MD Anderson Cancer Center in Texas, USA and the Cancer Hospital Chinese Academy of Medical Sciences in Beijing, China. […] This was followed by a dose-expansion phase, the primary objective of which was to confirm the safety and tolerability of tinengotinib at the DRDE. Secondary objectives were to characterize the pharmacokinetics and preliminary efficacy of tinengotinib.
Dose escalation was guided by an adaptive Bayesian logistic regression model using the Escalation with Overdose Control principle.[6],[7] Study data (including DLTs, grade 2 adverse events during cycle 1, and pharmacokinetic data) were reviewed by the sponsor and trial investigators at each dose level and used to guide dose-escalation decisions. MTD was based on the Bayesian model, but with consideration given to available safety and tolerability data. DRDE was based on an evaluation of all available data (safety, clinical activity, and pharmacokinetics).
After determination of the DRDE, the dose-expansion phase was opened to further characterize safety and pharmacokinetics, and to assess preliminary efficacy.
Routine safety assessments of adverse events, laboratory tests (hematology, coagulation, biochemistry, and urinalysis), vital signs, and 12-lead electrocardiograms were performed. Adverse events were graded according to the National Cancer Institute Common Terminology Criteria for Adverse Events (CTCAE), version 5.0.

tinengotinib
DLT: Hypertension (1 mg (n=1)): 0 No. (%)
DLT: Palmar-plantar erythrodysesthesia syndrome (1 mg (n=1)): 0 No. (%)
DLT: Skin and subcutaneous tissue disorders (1 mg (n=1)): 0 No. (%)
DLT: Vascular disorders (1 mg (n=1)): 0 No. (%)
Subjects who had a dose-limiting toxicity (1 mg (n=1)): 0 No. (%)
DLT: Hypertension (3 mg (n=1)): 0 No. (%)
DLT: Palmar-plantar erythrodysesthesia syndrome (3 mg (n=1)): 0 No. (%)
DLT: Skin and subcutaneous tissue disorders (3 mg (n=1)): 0 No. (%)
DLT: Vascular disorders (3 mg (n=1)): 0 No. (%)
Subjects who had a dose-limiting toxicity (3 mg (n=1)): 0 No. (%)
DLT: Hypertension (5 mg (n=4)): 0 No. (%)
DLT: Palmar-plantar erythrodysesthesia syndrome (5 mg (n=4)): 0 No. (%)
DLT: Skin and subcutaneous tissue disorders (5 mg (n=4)): 0 No. (%)
DLT: Vascular disorders (5 mg (n=4)): 0 No. (%)
Subjects who had a dose-limiting toxicity (5 mg (n=4)): 0 No. (%)
DLT: Hypertension (8 mg (n=9)): 0 No. (%)
DLT: Palmar-plantar erythrodysesthesia syndrome (8 mg (n=9)): 1 (11.1) No. (%)
DLT: Skin and subcutaneous tissue disorders (8 mg (n=9)): 1 (11.1) No. (%)
DLT: Vascular disorders (8 mg (n=9)): 0 No. (%)
Subjects who had a dose-limiting toxicity (8 mg (n=9)): 1 (11.1) No. (%)
DLT: Hypertension (10 mg (n=3)): 0 No. (%)
DLT: Palmar-plantar erythrodysesthesia syndrome (10 mg (n=3)): 0 No. (%)
DLT: Skin and subcutaneous tissue disorders (10 mg (n=3)): 0 No. (%)
DLT: Vascular disorders (10 mg (n=3)): 0 No. (%)
Subjects who had a dose-limiting toxicity (10 mg (n=3)): 0 No. (%)
DLT: Hypertension (12 mg (n=9)): 0 No. (%)
DLT: Palmar-plantar erythrodysesthesia syndrome (12 mg (n=9)): 0 No. (%)
DLT: Skin and subcutaneous tissue disorders (12 mg (n=9)): 0 No. (%)
DLT: Vascular disorders (12 mg (n=9)): 0 No. (%)
Subjects who had a dose-limiting toxicity (12 mg (n=9)): 0 No. (%)
DLTs during the dose-expansion phase (12 mg dose): no other DLTs
DLT: Hypertension (15 mg (n=5)): 2 (40.0) No. (%)
DLT: Palmar-plantar erythrodysesthesia syndrome (15 mg (n=5)): 0 No. (%)
DLT: Skin and subcutaneous tissue disorders (15 mg (n=5)): 0 No. (%)
DLT: Vascular disorders (15 mg (n=5)): 2 (40.0) No. (%)
Subjects who had a dose-limiting toxicity (15 mg (n=5)): 2 (40.0) No. (%)
Dose modifications (dose adjustment or temporary interruption) because of drug-related TEAEs (48 patients): 52.1%
Dose modifications because of drug-related hypertension (48 patients): 22.9%
Drug-related grade 3 diarrhea (48 patients): 2.1%
Drug-related grade 3 hypertension (48 patients): 27.1%
Drug-related grade 3 nausea (48 patients): 2.1%
Drug-related grade 3 palmar-plantar erythrodysesthesia syndrome (48 patients): 2.1%
Drug-related grade 3 stomatitis (48 patients): 4.2%
Drug-related grade 4 or 5 TEAEs (48 patients): No drug-related grade 4 or 5 TEAEs were reported
Patients with drug-related grade 3 TEAEs (48 patients): 43.8%
Patients with drug-related serious adverse events (48 patients): 14.6%
Patients with study drug-related TEAEs (48 patients, all doses): 85.4%
Drug-related TEAE diarrhea (48 patients, any grade): 33.3%
Drug-related TEAE hypertension (48 patients, any grade): 50.0%
Drug-related TEAE nausea (48 patients, any grade): 22.9%
Drug-related TEAE palmar-plantar erythrodysesthesia syndrome (48 patients, any grade): 29.2%
Drug-related TEAE stomatitis (48 patients, any grade): 29.2%
Drug-related TEAE vomiting (48 patients, any grade): 20.8%
Maximum tolerated dose (MTD) (Bayesian model, doses 1-15 mg once daily): not reached
DLT: Hypertension (Total (n=32)): 2 (6.3) No. (%)
DLT: Palmar-plantar erythrodysesthesia syndrome (Total (n=32)): 1 (3.1) No. (%)
DLT: Skin and subcutaneous tissue disorders (Total (n=32)): 1 (3.1) No. (%)
DLT: Vascular disorders (Total (n=32)): 2 (6.3) No. (%)
Subjects who had a dose-limiting toxicity (Total (n=32)): 3 (9.4) No. (%)
Risk of grade ≥3 hypertension predicted by exposure-response model (all doses): < 25%
Patients with AE (combined 12 mg (n=20)): 20 (100) n (%)
Patients with TEAE (combined 12 mg (n=20)): 20 (100) n (%)
Patients with TEAE leading to death (combined 12 mg (n=20)): 0 n (%)
Patients with TEAE leading to dose adjustment/temporary interruption (combined 12 mg (n=20)): 15 (75.0) n (%)
Patients with TEAE leading to study drug permanent discontinuation (combined 12 mg (n=20)): 3 (15.0) n (%)
Patients with grade ≥3 TEAE (combined 12 mg (n=20)): 14 (70.0) n (%)
Patients with study drug-related TEAE (combined 12 mg (n=20)): 19 (95.0) n (%)
Patients with study drug-related TEAE leading to dose adjustment/temporary interruption (combined 12 mg (n=20)): 13 (65.0) n (%)
Patients with study drug-related TEAE leading to study drug permanent discontinuation (combined 12 mg (n=20)): 1 (5.0) n (%)
Patients with study drug-related grade ≥3 TEAE (combined 12 mg (n=20)): 11 (55.0) n (%)
Patients with study drug-related treatment-emergent SAE (combined 12 mg (n=20)): 3 (15.0) n (%)
Patients with treatment-emergent SAE (combined 12 mg (n=20)): 9 (45.0) n (%)
Patients with AE (dose escalation 1 mg (n=1)): 1 (100) n (%)
Patients with TEAE (dose escalation 1 mg (n=1)): 1 (100) n (%)
Patients with TEAE leading to death (dose escalation 1 mg (n=1)): 0 n (%)
Patients with TEAE leading to dose adjustment/temporary interruption (dose escalation 1 mg (n=1)): 0 n (%)
Patients with TEAE leading to study drug permanent discontinuation (dose escalation 1 mg (n=1)): 0 n (%)
Patients with grade ≥3 TEAE (dose escalation 1 mg (n=1)): 0 n (%)
Patients with study drug-related TEAE (dose escalation 1 mg (n=1)): 0 n (%)
Patients with study drug-related TEAE leading to dose adjustment/temporary interruption (dose escalation 1 mg (n=1)): 0 n (%)
Patients with study drug-related TEAE leading to study drug permanent discontinuation (dose escalation 1 mg (n=1)): 0 n (%)
Patients with study drug-related grade ≥3 TEAE (dose escalation 1 mg (n=1)): 0 n (%)
Patients with study drug-related treatment-emergent SAE (dose escalation 1 mg (n=1)): 0 n (%)
Patients with treatment-emergent SAE (dose escalation 1 mg (n=1)): 0 n (%)
Patients with AE (dose escalation 3 mg (n=1)): 1 (100) n (%)
Patients with TEAE (dose escalation 3 mg (n=1)): 1 (100) n (%)
Patients with TEAE leading to death (dose escalation 3 mg (n=1)): 0 n (%)
Patients with TEAE leading to dose adjustment/temporary interruption (dose escalation 3 mg (n=1)): 0 n (%)
Patients with TEAE leading to study drug permanent discontinuation (dose escalation 3 mg (n=1)): 0 n (%)
Patients with grade ≥3 TEAE (dose escalation 3 mg (n=1)): 0 n (%)
Patients with study drug-related TEAE (dose escalation 3 mg (n=1)): 0 n (%)
Patients with study drug-related TEAE leading to dose adjustment/temporary interruption (dose escalation 3 mg (n=1)): 0 n (%)
Patients with study drug-related TEAE leading to study drug permanent discontinuation (dose escalation 3 mg (n=1)): 0 n (%)
Patients with study drug-related grade ≥3 TEAE (dose escalation 3 mg (n=1)): 0 n (%)
Patients with study drug-related treatment-emergent SAE (dose escalation 3 mg (n=1)): 0 n (%)
Patients with treatment-emergent SAE (dose escalation 3 mg (n=1)): 0 n (%)
Patients with AE (dose escalation 5 mg (n=4)): 4 (100) n (%)
Patients with TEAE (dose escalation 5 mg (n=4)): 4 (100) n (%)
Patients with TEAE leading to death (dose escalation 5 mg (n=4)): 0 n (%)
Patients with TEAE leading to dose adjustment/temporary interruption (dose escalation 5 mg (n=4)): 2 (50.0) n (%)
Patients with TEAE leading to study drug permanent discontinuation (dose escalation 5 mg (n=4)): 0 n (%)
Patients with grade ≥3 TEAE (dose escalation 5 mg (n=4)): 1 (25.0) n (%)
Patients with study drug-related TEAE (dose escalation 5 mg (n=4)): 3 (75.0) n (%)
Patients with study drug-related TEAE leading to dose adjustment/temporary interruption (dose escalation 5 mg (n=4)): 1 (25.0) n (%)
Patients with study drug-related TEAE leading to study drug permanent discontinuation (dose escalation 5 mg (n=4)): 0 n (%)
Patients with study drug-related grade ≥3 TEAE (dose escalation 5 mg (n=4)): 1 (25.0) n (%)
Patients with study drug-related treatment-emergent SAE (dose escalation 5 mg (n=4)): 0 n (%)
Patients with treatment-emergent SAE (dose escalation 5 mg (n=4)): 0 n (%)
Patients with AE (dose escalation 8 mg (n=10)): 9 (90.0) n (%)
Patients with TEAE (dose escalation 8 mg (n=10)): 9 (90.0) n (%)
Patients with TEAE leading to death (dose escalation 8 mg (n=10)): 0 n (%)
Patients with TEAE leading to dose adjustment/temporary interruption (dose escalation 8 mg (n=10)): 5 (50.0) n (%)
Patients with TEAE leading to study drug permanent discontinuation (dose escalation 8 mg (n=10)): 2 (20.0) n (%)
Patients with grade ≥3 TEAE (dose escalation 8 mg (n=10)): 6 (60.0) n (%)
Patients with study drug-related TEAE (dose escalation 8 mg (n=10)): 8 (80.0) n (%)
Patients with study drug-related TEAE leading to dose adjustment/temporary interruption (dose escalation 8 mg (n=10)): 5 (50.0) n (%)
Patients with study drug-related TEAE leading to study drug permanent discontinuation (dose escalation 8 mg (n=10)): 1 (10.0) n (%)
Patients with study drug-related grade ≥3 TEAE (dose escalation 8 mg (n=10)): 4 (40.0) n (%)
Patients with study drug-related treatment-emergent SAE (dose escalation 8 mg (n=10)): 3 (30.0) n (%)
Patients with treatment-emergent SAE (dose escalation 8 mg (n=10)): 5 (50.0) n (%)
Patients with AE (dose escalation 10 mg (n=6)): 6 (100) n (%)
Patients with TEAE (dose escalation 10 mg (n=6)): 6 (100) n (%)
Patients with TEAE leading to death (dose escalation 10 mg (n=6)): 0 n (%)
Patients with TEAE leading to dose adjustment/temporary interruption (dose escalation 10 mg (n=6)): 5 (83.3) n (%)
Patients with TEAE leading to study drug permanent discontinuation (dose escalation 10 mg (n=6)): 4 (66.7) n (%)
Patients with grade ≥3 TEAE (dose escalation 10 mg (n=6)): 5 (83.3) n (%)
Patients with study drug-related TEAE (dose escalation 10 mg (n=6)): 6 (100) n (%)
Patients with study drug-related TEAE leading to dose adjustment/temporary interruption (dose escalation 10 mg (n=6)): 3 (50.0) n (%)
Patients with study drug-related TEAE leading to study drug permanent discontinuation (dose escalation 10 mg (n=6)): 4 (66.7) n (%)
Patients with study drug-related grade ≥3 TEAE (dose escalation 10 mg (n=6)): 2 (33.3) n (%)
Patients with study drug-related treatment-emergent SAE (dose escalation 10 mg (n=6)): 1 (16.7) n (%)
Patients with treatment-emergent SAE (dose escalation 10 mg (n=6)): 4 (66.7) n (%)
Patients with AE (dose escalation 12 mg (n=12)): 12 (100) n (%)
Patients with TEAE (dose escalation 12 mg (n=12)): 12 (100) n (%)
Patients with TEAE leading to death (dose escalation 12 mg (n=12)): 0 n (%)
Patients with TEAE leading to dose adjustment/temporary interruption (dose escalation 12 mg (n=12)): 8 (66.7) n (%)
Patients with TEAE leading to study drug permanent discontinuation (dose escalation 12 mg (n=12)): 3 (25.0) n (%)
Patients with grade ≥3 TEAE (dose escalation 12 mg (n=12)): 9 (75.0) n (%)
Patients with study drug-related TEAE (dose escalation 12 mg (n=12)): 11 (91.7) n (%)
Patients with study drug-related TEAE leading to dose adjustment/temporary interruption (dose escalation 12 mg (n=12)): 6 (50.0) n (%)
